# Experimental data reported in PubChem BioAssay AID720513 (Broad Institute, 2013).
# Results filed as inconclusive are left out.
# Tested on: U2OS PGC1a acetylation AlphaLISA, overnight
# Assay: PGC1a acetylation increase, cellular AlphaLISA – cell-based, cherry-picked samples, set 6, dose response (AID 720513);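 further: cells made to overexpress flag tagged PGC1a plus GCN5 acetyltransferase by viral infection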
row,SMILES,AC40 [µM]
1,N#Cc1ccccc1COC(=O)c1ccc2c(c1)OCCO2,5.43
2,CCn1c(SC/C=C/c2ccccc2)nnc1-c1cccs1,11.2
3,CCCCN(CCCC)S(=O)(=O)c1ccc2oc(C(=O)N3CCOCC3)c(C)c2c1,1.79
4,COc1cc2cc(-c3ccc(O)cc3O)nc(C)c2cc1OC,19.3
5,CCC(=O)N(CC)c1nc(-c2ccc(OC)cc2)cs1,3.53
6,COc1ccc(OC)c(NC(=O)CSc2nnc(-c3cccnc3)s2)c1,0.792
7,C[C@@H]1CN([C@@H](C)CO)C(=O)c2c(c3ccccc3n2C)-c2ccccc2CO[C@@H]1CN(C)C(=O)c1ccccc1,5.25
8,C[C@H]1CN([C@@H](C)CO)C(=O)c2cccc(NS(=O)(=O)c3ccc(F)cc3)c2O[C@H]1CN(C)Cc1ccc(C(F)(F)F)cc1,1.3
9,O=C(c1ccccc1Nc1ccc(SC(F)F)cc1)N1CCCCCC1,10.3
10,CCCCN=C1NC(=O)C(CC(=O)Nc2ccc(Cl)cc2)S1 (stereo not given),3.53
11,COc1ccc(NC(=O)CSC2CC(=O)N(c3ccc4c(c3)OCCO4)C2=O)cc1 (stereo not given),16.5
12,O=C(CSc1nnc(Cn2cnc3ccccc32)o1)c1ccccc1,7.68
13,Cc1ccc(NC(=O)CN(C)S(=O)(=O)c2cccs2)c(Br)c1,14.7
14,O=[N+]([O-])c1ccc(S(=O)(=O)c2cccc(C(F)(F)F)c2)nc1,0.581
15,CC(=O)c1ccc(NC(=O)N2CCc3ccccc3C2)cc1,0.412
16,O=C(CN1CCC(N2CCCCC2)CC1)N1CCCc2ccccc21,11.1
17,Cc1ccc(OC(=O)N(C)C[C@H]2OCc3ccccc3-c3c(n(C)c4ccccc34)C(=O)N([C@@H](C)CO)C[C@H]2C)cc1,4.98
18,Cc1ccc(OC(=O)N(C)C[C@H]2OCc3ccccc3-c3c(n(C)c4ccccc34)C(=O)N([C@H](C)CO)C[C@H]2C)cc1,7.6
19,O=C(NCc1ccccc1)c1ccc(NC(=O)C2CC2)cc1,11.1
20,CCOC(=O)C1=CC[C@@H](c2ccccc2)N(S(=O)(=O)c2ccc(C)cc2)[C@H]1c1cccc(OC)c1,9.62

row,SMILES,AC40 [µM]
1,CNC(=O)c1nnsc1S(=O)c1ccc(Cl)cc1 (stereo not given),1.96
2,O=S(=O)(NC12CC3CC(CC(C3)C1)C2)c1ccc(F)cc1,4.02
3,CCN(CC)C(=O)CSc1nnc2nnc3cc(Cl)ccc3n12,17.9
4,CCOC(=O)C1=CC[C@@H](c2ccc(F)cc2)N(S(=O)(=O)c2ccc(C)cc2)[C@H]1c1ccccc1,3.22
5,Cc1cc(C(=O)NNS(=O)(=O)c2ccccc2C(F)(F)F)nn1C(C)(C)C,1.04
6,COc1ccc(-c2nc3c(C)cc(Br)cn3c2Cc2ccc(C)cc2)cc1OC,8.31
7,CC(C)[C@H](C)NC(=O)N(C)C[C@H]1OCc2ccccc2-c2c(n(C)c3ccccc23)C(=O)N([C@H](C)CO)C[C@H]1C,5.85
8,CCOC(=O)C(C)n1cnc2c(nnn2-c2ccc(C)cc2)c1=O (stereo not given),2.7
9,COc1ccc(-c2cc(-c3ccccc3O)[nH]n2)cc1OC,7.33
10,Cc1ccccc1-c1ccc([C@@H]2[C@H](CO)N3CCCCN(C(=O)Nc4cccc(F)c4)C[C@@H]23)cc1,8.22
11,CCOc1ccc(N(C)S(=O)(=O)c2cc(-c3cc(C)no3)ccc2C(C)C)cc1,2.97
12,COC(=O)[C@@]1(C)[C@H]2C(=O)N(Cc3ccccc3)C(=O)[C@H]2[C@H]2CN=C(SCC3CC3)N21,16.8
13,CCSc1ccc(NC(=O)c2cccnc2)cc1,1.65
14,CCc1nnc(NC(=O)Cc2ccc(S(=O)(=O)N3CCCCC3)cc2)s1,16.6
15,COc1ccc(S(=O)(=O)N2CCOCC2)cc1NC(=O)CCNC(=O)c1ccc(Cl)cc1,0.772
16,COC(=O)c1cc(S(=O)(=O)N2CCN(c3ccc(C(C)=O)cc3)CC2)c[nH]1,4.17
17,O=C(c1cccs1)N1CCN(c2nnc(-c3ccccc3)c3ccccc23)CC1,1.65
18,COc1ccc(NC(=O)Cn2ncc(Cl)c(Cl)c2=O)cc1S(=O)(=O)N1CCOCC1,1.6
19,CCOC(=O)CNS(=O)(=O)c1cc(-c2nnc(Nc3ccc4c(c3)OCO4)c3ccccc23)ccc1C,1.29
20,Cc1coc2cc3oc(=O)c(CCC(=O)NC4CC4)c(C)c3cc12,1.6
